Laboratory results reported in ChEMBL document CHEMBL6092130, “Recent advances in the treatment of gout with NLRP3 inflammasome inhibitors” (Bioorg Med Chem, 2024).

What was measured:
[1] = Cytotoxicity against human PBMC cells assessed as reduction in cell viability by CellTiter Glo assay; type: functional, cell-based
[2] = Inhibition of NLRP3 inflammasome in mouse J774.A1 cells assessed as inhibition of IL-1 beta secretion; type: cell-based
[3] = Inhibition of NLRP3 inflammasome activation in LPS-induced mouse RAW264.7 cells assessed as downregulation of NLRP3 expression; type: cell-based
[4] = Oral bioavailability in human; type: ADME, organism-based; conditions: in vivo
[5] = Inhibition of NLRP3 inflammasome activation in LPS-induced mouse RAW264.7 cells assessed as reduction of NLRP3 expression by Western blot analysis; type: cell-based
RAW264.7 = assay: Antiinflammatory activity against mouse RAW264.7 cells assessed as decrease in LPS-induced IL-1beta level at 20 uM incubated for 24 hrs by ELISA relative to control; type: functional; design: scale not given: the % may be the effect or the level left
[6] = Antiinflammatory activity against LPS-stimulated human MDM cells assessed as inhibition of LPS-induced IL-1beta level at 20 uM incubated for 24 hrs by ELISA relative to control; type: functional; design: scale not given: the % may be the effect or the level left

**Q.** With C=C1C(=O)[C@]23[C@H](O)[C@H]1CC[C@H]2[C@@]12CO[C@]3(O)[C@@H](O)[C@@H]1C(C)(C)CC[C@@H]2O [ORIDONIN] as the compound, how does the IC50 [1] read?
**A.** Its IC50 is 5.18 µM.

**Q.** Which IC50 [2] does the source give for COc1ccc(Cl)cc1C(=O)NCCc1ccc(S(=O)(=O)NO)cc1 here?
**A.** The IC50 was 8.45 µM.

**Q.** For CNS(=O)(=O)c1ccc(CCNC(=O)c2ccccc2)cc1, which IC50 [3] is on record?
**A.** Its IC50 is 147 nM.

**Q.** With CC(C)C[C@H](NC(=O)[C@H](Cc1ccccc1)NC(=O)c1c(F)cccc1F)B(O)O as the compound, how does the bioavailability [4] read?
**A.** Its bioavailability is 48.1%.

**Q.** For COc1ccc(CNS(=O)(=O)c2ccc(CCNC(=O)c3cc(Cl)ccc3OC)cc2)cc1, which IC50 [3] is on record?
**A.** The IC50 was 450 nM.

**Q.** Which IC50 [3] does the source give for CC(C)(O)c1coc(S(=O)(=O)NC(=O)Nc2c3c(cc4c2CCC4)CCC3)c1 here?
**A.** Its IC50 is 7.5 nM.

**Q.** Which IC50 [5] does the source give for COc1ccc(Cl)cc1C(=O)NCCc1ccc(S(=O)(=O)NC(=O)NC2CCCCC2)cc1 [GLYBURIDE] here?
**A.** Its IC50 is 13 µM.

**Q.** With CCCCN(CCCC)S(=O)(=O)c1ccc(CCNC(=O)c2cc(Cl)ccc2OC)cc1 as the compound, how does the IC50 [3] read?
**A.** Its IC50 is 550 nM.

**Q.** With CC(C)C[C@H](NC(=O)CNC(=O)c1cc(Cl)ccc1Cl)B(O)O [IXAZOMIB] as the compound, how does the Activity (RAW264.7) read?
**A.** Its Activity is 77%.

**Q.** Which Activity [6] does the source give for CS(=O)(=O)CCC#N here?
**A.** The Activity was 60%.
